Several values for one entry are separate records, joined by “and”; a condition that tells them apart may be missing. Equal entries are not always repeated. After the bases stand the sugars from the 5' end (letter, count) and the backbone: PS all phosphorothioate, else s phosphorothioate and o phosphodiester by linkage. Methylation of C is not given here. e = 2'-O-(2-methoxyethyl) (MOE); k = constrained ethyl (cEt); d = 2'-deoxy (DNA)
Target: APOL1
Conditions: ASO

Row | Sequence | target mRNA inhibition (A431, 0.0625 µM) | target mRNA inhibition (A431, 0.25 µM) | target mRNA inhibition (A431, 1 µM) | target mRNA inhibition (A431, 2 µM) | target mRNA inhibition (A431, 0.0156 µM) | target mRNA inhibition (A431, 0.04 µM)
1 | ATTCCTGGGCAGTTCA (sugars k4 d9 k3, PS) | 37% | 43% | 58% |  |  | 
2 | ATTCTATTAGAGGGCT (sugars k3 d4 k3 e1 d5, PS) |  |  |  | 85% |  | 
3 | ATTCTATTAGAGGGCT (sugars k4 d9 k3, PS) | 54% and 53% and 55% | 82% and 76% and 86% |  |  | 31% | 
4 | ATTCTATTAGAGGGCT (sugars kddddkekekeddddd, PS) |  |  |  | 34% |  | 
5 | ATTCTATTAGAGGGCT (sugars kkdddddkekeddddd, PS) |  |  |  | 78% |  | 
6 | ATTCTCATGGTACAGG (sugars kkdddddkekeddddd, PS) | 46% | 74% | 90% | 95% | 18% | 
7 | ATTCTCATGGTACAGG (sugars kkddddkekekddddd, PS) |  |  |  | 76% |  | 
8 | ATTTCTTGATGTGGTG (sugars kddddkekekeddddd, PS) |  |  |  | 81% |  | 
9 | CAACACATCATTGGGT (sugars k2 d4 e3 k2 d5, PS) |  |  |  | 80% |  | 
10 | CAACACATCATTGGGT (sugars kkddddkekekddddd, PS) |  |  |  | 43% |  | 
11 | CAACACATCATTGGGT (sugars kkkddddkekekdddd, PS) |  |  |  | 30% |  | 
12 | CACAGCATTGAGTACA (sugars k4 d9 k3, PS) | 44% | 66% | 86% |  |  | 
13 | CACATCATTGGGTTAT (sugars kkddddkekekddddd, PS) |  |  |  | 74% |  | 
14 | CACTTTACATGCACGA (sugars kkdddddddddkekek, PS) | 38% | 69% | 89% |  | 21% | 
15 | CAGATGGGTACTTCTG (sugars kdddddkekekddddd, PS) |  |  |  | 44% |  | 
16 | CAGATGGGTACTTCTG (sugars kddddkekekeddddd, PS) |  |  |  | 23% |  | 
17 | CAGATTCTGTGTGCTC (sugars k4 d9 k3, PS) | 51% | 68% | 75% |  |  | 
18 | CAGTTTTGTAAGTGCA (sugars k2 d4 e3 k2 d5, PS) |  |  |  | 92% |  | 
19 | CAGTTTTGTAAGTGCA (sugars k4 d9 k3, PS) | 96% | 98% | 99% |  |  | 
20 | CAGTTTTGTAAGTGCA (sugars kddddkekekeddddd, PS) |  |  |  | 48% |  | 
21 | CAGTTTTGTAAGTGCA (sugars kkkddddkdkdkdddd, PS) |  |  | 92% | 93% |  | 57% and 50%
22 | CAGTTTTGTAAGTGCA (sugars kkkddddkekekdddd, PS) |  |  |  | 87% |  | 
23 | CATTCAGAATTTCCAC (sugars k4 d9 k3, PS) | 56% | 81% | 90% and 81% |  |  | 15%
24 | CATTCAGAATTTCCAC (sugars kkkddddkekeddddd, PS) |  |  |  | 86% |  | 
25 | CCCTTTTGGCACCTTC (sugars k4 d9 k3, PS) | 52% and 73% | 81% and 88% | 94% and 93% |  |  | 
26 | CCGTCAATATATTCTT (sugars k3 d4 k3 e1 d5, PS) | 70% | 92% | 96% | 98% | 36% | 
27 | CCGTTCCAGGCCTCAT (sugars k4 d9 k3, PS) | 48% | 66% | 65% |  |  | 

Row | Sequence | target mRNA inhibition (A431, 0.0625 µM) | target mRNA inhibition (A431, 0.25 µM) | target mRNA inhibition (A431, 1 µM) | target mRNA inhibition (A431, 2 µM) | target mRNA inhibition (A431, 0.0156 µM) | target mRNA inhibition (A431, 0.04 µM)
28 | CGCAATGCTGACTTGG (sugars k2 d4 e3 k2 d5, PS) |  |  |  | 88% |  | 
29 | CGCAATGCTGACTTGG (sugars kkddddkdkdkddddd, PS) |  |  |  | 94% |  | 
30 | CGTCAATATATTCTTT (sugars kdddddkekekddddd, PS) |  |  |  | 90% |  | 
31 | CGTCAATATATTCTTT (sugars kkddddkekekddddd, PS) | 41% | 75% | 90% | 94% | 20% | 
32 | CGTCAATATATTCTTT (sugars kkkddddkdkdkdddd, PS) | 61% | 84% | 93% | 95% | 23% | 
33 | CGTTCCAGGCCTCATT (sugars k4 d9 k3, PS) | 40% | 60% | 82% |  |  | 
34 | CTAATTTTCTGACTGT (sugars kkddddekekeddddd, PS) |  |  |  | 90% |  | 
35 | CTAATTTTCTGACTGT (sugars kkkddddkekekdddd, PS) |  |  |  | 90% |  | 
36 | CTGAAGATTGGCTCTG (sugars kkddddekekeddddd, PS) |  |  |  | 53% |  | 
37 | CTGTTCTAACTCTTGG (sugars k4 d9 k3, PS) | 61% | 79% | 87% |  |  | 
38 | CTGTTCTAACTCTTGG (sugars kkddddkekekddddd, PS) |  |  |  | 88% |  | 
39 | CTTCTGTTAGATACAA (sugars k4 d9 k3, PS) | 46% | 73% | 90% |  |  | 
40 | CTTCTTATGTTATCCT (sugars k4 d9 k3, PS) | 35% | 72% | 85% |  |  | 
41 | CTTTAAACTCAGGTGA (sugars kkddddkekekkdddd, PS) |  |  |  | 70% |  | 
42 | CTTTATACCAGTGTCT (sugars k2 d4 e3 k2 d5, PS) | 46% | 74% | 92% | 96% | 12% | 
43 | CTTTATACCAGTGTCT (sugars kekddddeekkddddd, PS) | 41% | 69% | 89% | 95% | 22% | 
44 | CTTTATACCAGTGTCT (sugars kkddddkekekddddd, PS) |  |  |  | 86% |  | 
45 | GAACGCAATGCTGACT (sugars kkkddddkekekdddd, PS) |  |  |  | 48% |  | 
46 | GAAGATTGGCTCTGGC (sugars k2 d4 e3 k2 d5, PS) |  |  |  | 81% |  | 
47 | GAAGATTGGCTCTGGC (sugars kkkddddkekeddddd, PS) |  |  |  | 75% |  | 
48 | GAATTATGGAATTGCA (sugars k2 d4 e4 k2 d4, PS) |  |  |  | 95% |  | 
49 | GAATTATGGAATTGCA (sugars kkddddekekeddddd, PS) |  |  |  | 95% |  | 
50 | GAATTATGGAATTGCA (sugars kkddddkekekkdddd, PS) |  |  |  | 61% |  | 
51 | GAATTATGGAATTGCA (sugars kkkddddkekekdddd, PS) |  |  |  | 61% |  | 
52 | GAGCGATTGTCTTGTT (sugars k4 d9 k3, PS) | 62% and 83% | 85% and 92% | 92% and 95% |  |  | 
53 | GAGTATTGTTTTTGTG (sugars k3 d5 k3 d5, PS) | 74% and 66% | 91% and 88% | 95% and 94% | 93% and 94% | 37% | 
54 | GAGTATTGTTTTTGTG (sugars kkddddkdkdkddddd, PS) | 34% | 70% | 88% | 92% | 17% | 
